Test results from paper PMC9870012 (Journal of Enzyme Inhibition and Medicinal Chemistry, 2023).

Tests used:
[1] = target: MMP9 (Homo sapiens, UniProt P14780); assay: Off-target metalloprotease inhibition, MMP9; type: biochemical; conditions: read-out: Residual activity MMP9
[2] = target: MMP13 (Homo sapiens, UniProt P45452); assay: Off-target metalloprotease inhibition, MMP13; type: biochemical; conditions: read-out: Residual activity MMP13
[3] = target: T1, ADAM10 (Homo sapiens, UniProt O14672); assay: Off-target metalloprotease inhibition, ADAM10; type: biochemical; conditions: read-out: Residual activity ADAM10
T1 sequence (O14672 214-748): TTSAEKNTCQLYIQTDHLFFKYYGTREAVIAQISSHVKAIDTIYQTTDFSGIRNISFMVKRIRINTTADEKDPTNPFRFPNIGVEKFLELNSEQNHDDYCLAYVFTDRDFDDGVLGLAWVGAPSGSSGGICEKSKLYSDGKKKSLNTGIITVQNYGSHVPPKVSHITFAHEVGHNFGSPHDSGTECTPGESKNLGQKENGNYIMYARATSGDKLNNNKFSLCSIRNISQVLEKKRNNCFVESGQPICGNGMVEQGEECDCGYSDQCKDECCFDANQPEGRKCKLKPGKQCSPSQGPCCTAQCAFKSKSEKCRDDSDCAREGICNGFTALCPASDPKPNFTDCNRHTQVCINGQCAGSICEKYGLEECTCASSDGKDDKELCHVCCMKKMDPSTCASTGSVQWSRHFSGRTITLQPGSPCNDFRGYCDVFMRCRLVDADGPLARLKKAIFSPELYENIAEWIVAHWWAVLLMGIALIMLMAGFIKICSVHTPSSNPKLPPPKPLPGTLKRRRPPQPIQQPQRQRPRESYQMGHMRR

[4] = tested on: MMPs and ADAMs; assay: Off-target metalloprotease panel; type: biochemical, human; conditions: 10 µM inhibitor concentration
[5] = target: ADAM17 (Homo sapiens, UniProt P78536); assay: Off-target metalloprotease inhibition, ADAM17; type: biochemical; conditions: read-out: Residual activity ADAM17
[6] = target: T2, MMP2 (Homo sapiens, UniProt P08253); assay: Off-target metalloprotease inhibition, MMP2; type: biochemical; conditions: read-out: Residual activity MMP2
T2 sequence (P08253 110-660): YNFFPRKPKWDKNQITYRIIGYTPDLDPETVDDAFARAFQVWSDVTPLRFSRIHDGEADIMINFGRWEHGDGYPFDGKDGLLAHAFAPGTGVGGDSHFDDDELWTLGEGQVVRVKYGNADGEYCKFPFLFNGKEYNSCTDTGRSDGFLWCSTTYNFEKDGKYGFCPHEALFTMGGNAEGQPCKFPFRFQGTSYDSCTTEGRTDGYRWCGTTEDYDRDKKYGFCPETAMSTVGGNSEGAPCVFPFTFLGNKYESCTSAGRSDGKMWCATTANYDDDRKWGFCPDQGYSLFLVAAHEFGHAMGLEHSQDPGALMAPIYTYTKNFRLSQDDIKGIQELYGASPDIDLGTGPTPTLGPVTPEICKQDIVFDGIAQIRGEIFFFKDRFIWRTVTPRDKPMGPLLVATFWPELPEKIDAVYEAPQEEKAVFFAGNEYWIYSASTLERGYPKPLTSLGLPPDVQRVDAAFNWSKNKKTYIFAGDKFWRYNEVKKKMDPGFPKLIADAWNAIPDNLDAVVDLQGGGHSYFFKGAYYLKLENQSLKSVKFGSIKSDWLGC

[7] = Cell viability assay; type: cell-based; conditions: human, Hep-G2 cells
[8] = target: T3, human meprin β (Homo sapiens, UniProt Q16820); type: biochemical; conditions: Ki(app) Meprin β, geometric mean of three independent experiments with standard deviation factor
T3 sequence (Q16820 62-701): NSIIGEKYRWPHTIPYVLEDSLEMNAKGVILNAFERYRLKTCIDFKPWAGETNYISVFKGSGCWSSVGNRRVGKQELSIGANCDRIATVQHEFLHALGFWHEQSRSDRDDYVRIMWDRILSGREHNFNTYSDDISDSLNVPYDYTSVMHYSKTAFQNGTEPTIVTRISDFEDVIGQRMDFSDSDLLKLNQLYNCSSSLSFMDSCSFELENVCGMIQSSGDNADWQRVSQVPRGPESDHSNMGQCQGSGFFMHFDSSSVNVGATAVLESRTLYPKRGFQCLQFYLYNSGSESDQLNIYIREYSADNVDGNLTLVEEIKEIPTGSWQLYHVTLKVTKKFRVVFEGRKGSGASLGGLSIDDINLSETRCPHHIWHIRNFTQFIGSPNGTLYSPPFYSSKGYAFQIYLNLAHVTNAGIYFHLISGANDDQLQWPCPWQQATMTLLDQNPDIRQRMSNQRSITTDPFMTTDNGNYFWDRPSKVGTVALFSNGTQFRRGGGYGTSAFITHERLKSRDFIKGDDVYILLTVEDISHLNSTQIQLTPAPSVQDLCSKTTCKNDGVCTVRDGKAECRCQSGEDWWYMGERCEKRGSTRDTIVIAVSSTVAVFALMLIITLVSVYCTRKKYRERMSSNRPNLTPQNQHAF

[9] = Cell viability assay; type: cell-based; conditions: human, SH-SY5Y cells
[10] = target: T4, human meprin α (Homo sapiens, UniProt Q16819); type: biochemical; conditions: for Ki: Ki(app) Meprin α, geometric mean of three independent experiments with standard deviation factor; for SF: selectivity factor (Ki(app) meprin β/Ki(app) meprin α): meprin α over meprin β
T4 sequence (Q16819 66-746): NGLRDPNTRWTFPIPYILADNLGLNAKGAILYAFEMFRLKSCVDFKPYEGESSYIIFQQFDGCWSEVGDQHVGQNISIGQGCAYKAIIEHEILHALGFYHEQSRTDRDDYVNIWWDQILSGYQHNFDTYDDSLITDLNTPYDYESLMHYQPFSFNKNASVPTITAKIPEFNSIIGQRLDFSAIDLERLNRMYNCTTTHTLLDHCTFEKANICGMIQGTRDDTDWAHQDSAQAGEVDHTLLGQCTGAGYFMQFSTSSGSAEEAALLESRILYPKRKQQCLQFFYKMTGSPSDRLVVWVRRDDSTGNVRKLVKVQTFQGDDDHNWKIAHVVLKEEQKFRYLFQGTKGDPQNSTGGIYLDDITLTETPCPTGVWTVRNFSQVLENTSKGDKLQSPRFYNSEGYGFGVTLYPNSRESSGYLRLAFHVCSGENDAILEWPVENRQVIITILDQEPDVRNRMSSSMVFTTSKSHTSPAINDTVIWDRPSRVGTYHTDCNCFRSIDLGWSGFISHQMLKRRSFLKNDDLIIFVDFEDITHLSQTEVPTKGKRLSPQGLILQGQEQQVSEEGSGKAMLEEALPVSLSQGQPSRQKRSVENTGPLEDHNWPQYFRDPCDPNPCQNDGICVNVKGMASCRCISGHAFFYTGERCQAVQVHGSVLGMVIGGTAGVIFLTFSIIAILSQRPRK

MMP9, sequence (P14780 107-707 limits assumed): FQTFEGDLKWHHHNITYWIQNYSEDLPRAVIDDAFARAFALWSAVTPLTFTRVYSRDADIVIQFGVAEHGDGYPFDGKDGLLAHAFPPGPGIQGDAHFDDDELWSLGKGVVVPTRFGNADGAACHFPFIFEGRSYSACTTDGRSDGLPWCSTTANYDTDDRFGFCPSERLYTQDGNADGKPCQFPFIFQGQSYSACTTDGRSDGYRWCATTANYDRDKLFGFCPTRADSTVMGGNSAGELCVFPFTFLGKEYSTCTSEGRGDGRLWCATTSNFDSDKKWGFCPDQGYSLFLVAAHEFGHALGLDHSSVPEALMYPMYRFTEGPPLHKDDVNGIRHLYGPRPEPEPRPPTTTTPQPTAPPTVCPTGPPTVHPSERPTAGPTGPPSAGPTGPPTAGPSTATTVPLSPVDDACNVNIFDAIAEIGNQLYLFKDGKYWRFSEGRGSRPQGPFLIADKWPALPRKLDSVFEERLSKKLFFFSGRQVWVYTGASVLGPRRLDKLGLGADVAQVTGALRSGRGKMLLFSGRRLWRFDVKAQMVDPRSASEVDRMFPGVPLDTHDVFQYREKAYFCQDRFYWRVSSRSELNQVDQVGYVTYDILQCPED
ADAM17, sequence (P78536 215-824): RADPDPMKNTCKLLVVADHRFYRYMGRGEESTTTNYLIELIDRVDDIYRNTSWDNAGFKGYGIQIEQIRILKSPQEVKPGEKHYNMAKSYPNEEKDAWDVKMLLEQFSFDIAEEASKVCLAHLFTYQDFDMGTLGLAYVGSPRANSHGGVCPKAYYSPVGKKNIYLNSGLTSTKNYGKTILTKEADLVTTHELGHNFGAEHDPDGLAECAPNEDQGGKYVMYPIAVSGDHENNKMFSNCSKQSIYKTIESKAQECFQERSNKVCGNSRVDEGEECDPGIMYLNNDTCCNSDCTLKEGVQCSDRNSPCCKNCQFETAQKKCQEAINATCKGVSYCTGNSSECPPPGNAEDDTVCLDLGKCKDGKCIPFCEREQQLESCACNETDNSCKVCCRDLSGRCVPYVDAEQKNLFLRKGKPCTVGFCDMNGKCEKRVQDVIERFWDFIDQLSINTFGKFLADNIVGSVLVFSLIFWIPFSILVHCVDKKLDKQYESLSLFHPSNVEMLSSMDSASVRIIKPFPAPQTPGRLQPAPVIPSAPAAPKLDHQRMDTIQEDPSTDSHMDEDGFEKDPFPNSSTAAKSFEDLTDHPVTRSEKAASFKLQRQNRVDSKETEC

Structure (SMILES) | remaining activity at 10 µM [1] [%] | remaining activity at 10 µM [2] [%] | remaining activity at 10 µM [3] [%] | residual activities of the respective MMPs and ADAMs [4] | remaining activity at 10 µM [5] [%] | remaining activity at 10 µM [6] [%] | viability at 24 h, 30 µM [7] [%] | Ki [8] [pM] | viability at 24 h, 30 µM [9] [%] | Ki [10] [pM] | SF: selectivity factor (Ki(app) meprin β/Ki(app) meprin α) [10]
O=C(Cc1c(-c2cccc(C(=O)O)c2)n[nH]c1-c1cc(F)c(O)c(Cl)c1)NO [16j, 3-[5-(3-Chloro-5-fluoro-4-hydroxy-phenyl)-4-[2-(hydroxyamino)-2-oxo-ethyl]-1H-pyrazol-3-yl]benzoic acid] | 94 | 105 | 90 | above 90% | 99 | 95 | 98 | 200 | 110 | 100 | 2
O=C(Cc1c(-c2ccccc2)nn(Cc2ccc(Cl)c(O)c2F)c1-c1ccccc1)NO [21i, 2-[1-[(4-Chloro-2-fluoro-3-hydroxy-phenyl)methyl]-3,5-diphenyl-pyrazol-4-yl]ethane-hydroxamic acid] | 70 | 84 | 85 |  | 72 | 69 | 107 | 9300 | 79 |  | 116
O=C(Cc1c(-c2cc(F)c(O)c(Cl)c2)n[nH]c1-c1ccccc1)NO [14m, 2-[3-(3-Chloro-5-fluoro-4-hydroxyphenyl)-5-phenyl-1H-pyrazol-4-yl]ethanehydroxamic acid] | 86 | 88 | 104 |  | 68 | 66 | 103 | 400 | 86 | 100 | 3
